Tests used:
Format in all cases: cell-based
[1] = tested on: breast cell line HME infected with EZH2 adenovirus; test: basement membrane matrix invasion assay, EZH2 overexpressing HME cells
Method: (§1) A, Dose response of isoliquiritigenin on inhibiting EZH2 mediated repression. B, A reconstituted basement membrane invasion chamber assay was used to assess the invasion of breast epithelial cell line infected with EZH2 and control adenoviruses as well as SET domain mutant EZH2 adenovirus. EZH2 treated cells were also treated with SAHA, the HDAC inhibitor and isoliquiritigenin, the small molecule inhibitor of EZH2 and the control small molecule phloretin.
For invasion assays, the breast cell lines HME was infected with EZH2 adenovirus. Forty-eight hours post-infection, cells were seeded onto the basement membrane matrix (EC matrix, Chemicon, Temecula, Calif.) present in the insert of a 24-well culture plate. Fetal bovine serum was added to the lower chamber as a chemoattractant with or without 2 doses of small molecule inhibitors. After 48 hours, the non-invading cells and EC matrix were gently removed with a cotton swab. Invasive cells located on the lower side of the chamber were measured colorimetrically by treating with 150 μl of 10% acetic acid and the absorbance measured at 560 nm using a spectrophotometer.

EZH2 = biological target: T1, EZH2 (Homo sapiens, UniProt Q15910); test: high throughput screen, E-cadherin promoter luciferase reporter in EZH2 adenovirus infected cells; conditions: final compound concentration about 5 μM, 24 hours
T1 construct: expressed in transfected cells; host or cells: Primary breast cancer cells infected with EZH2 adenovirus
Method: A high throughput screening protocol was used to identify small molecule inhibitors of EZH2. Primary breast cancer cells were transfected with the E-cadherin promoter luciferase reporter gene and infected with the EZH2 adenovirus to suppress luciferase expression 48 hours prior to compound addition. Eighteen hours prior to compound addition, cells were trypsinized and distributed into 384-well plates in 60 μl of medium using the Multidrop equipment. At time zero, compounds were transferred from 1.5 mM DMSO stocks to the cell plates in a final compound concentration of about 5 μM. […] After 24 hours, the expressed luciferase activity was measured by adding 50 μl of the medium and 10 μl of Steady-Glo luciferase reagent (Promega). Sample plates were read in the Pherastar plate reader (BMG Labtech). Each plate in the screen contains 320 compounds to be tested plus 64 control wells placed in the outer two columns on each side of the plate (>50,000 compounds are screened). […]
A high throughput screening protocol was used to identify small molecule inhibitors of EZH2. […] After 24 hours, the expressed luciferase activity was measured by adding 50 μl of the medium and 10 ul of Steady-Glo luciferase reagent (Promega). Sample plates were read in the Pherastar plate reader (BMG Labtech). […]

[2] = tested on: EZH2 mediated E cadherin repression; test: EZH2 mediated E cadherin repression, SYBR green RT-PCR and dose response
Method: A, Chemical structure of the flavonoid isoliquiritigenin. B, Quantitative SYBR green RT-PCR of EZH2 and E cadherin transcripts in cell lines over expressing EZH2 and control adenoviruses. RT-PCR on each sample was performed in duplicate, and a ratio was calculated relative to the housekeeping genes GAPDH. Transcripts were also measured in cells that were treated with isoliquiritigenin or other small molecules.
as §1

T1 sequence (Q15910 whole entry): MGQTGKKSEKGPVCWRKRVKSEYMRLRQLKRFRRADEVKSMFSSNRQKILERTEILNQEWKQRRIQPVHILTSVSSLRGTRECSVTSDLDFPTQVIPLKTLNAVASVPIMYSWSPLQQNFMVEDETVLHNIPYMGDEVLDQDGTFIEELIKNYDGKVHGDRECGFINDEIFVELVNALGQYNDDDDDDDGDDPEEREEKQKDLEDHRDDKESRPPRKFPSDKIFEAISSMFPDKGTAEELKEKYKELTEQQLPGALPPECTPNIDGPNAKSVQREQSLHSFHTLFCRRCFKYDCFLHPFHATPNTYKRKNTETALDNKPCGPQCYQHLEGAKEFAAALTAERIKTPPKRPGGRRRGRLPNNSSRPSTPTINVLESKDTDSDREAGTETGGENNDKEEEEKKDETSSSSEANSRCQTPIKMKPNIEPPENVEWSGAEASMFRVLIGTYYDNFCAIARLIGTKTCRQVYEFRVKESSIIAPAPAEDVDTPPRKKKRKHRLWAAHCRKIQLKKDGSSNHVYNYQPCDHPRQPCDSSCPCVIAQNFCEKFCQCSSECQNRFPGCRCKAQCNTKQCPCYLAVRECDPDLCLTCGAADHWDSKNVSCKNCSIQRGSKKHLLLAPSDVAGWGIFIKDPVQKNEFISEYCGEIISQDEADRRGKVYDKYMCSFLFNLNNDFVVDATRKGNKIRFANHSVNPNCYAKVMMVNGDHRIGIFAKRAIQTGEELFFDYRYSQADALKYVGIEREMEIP
T1 sequence (O75530 whole entry partner): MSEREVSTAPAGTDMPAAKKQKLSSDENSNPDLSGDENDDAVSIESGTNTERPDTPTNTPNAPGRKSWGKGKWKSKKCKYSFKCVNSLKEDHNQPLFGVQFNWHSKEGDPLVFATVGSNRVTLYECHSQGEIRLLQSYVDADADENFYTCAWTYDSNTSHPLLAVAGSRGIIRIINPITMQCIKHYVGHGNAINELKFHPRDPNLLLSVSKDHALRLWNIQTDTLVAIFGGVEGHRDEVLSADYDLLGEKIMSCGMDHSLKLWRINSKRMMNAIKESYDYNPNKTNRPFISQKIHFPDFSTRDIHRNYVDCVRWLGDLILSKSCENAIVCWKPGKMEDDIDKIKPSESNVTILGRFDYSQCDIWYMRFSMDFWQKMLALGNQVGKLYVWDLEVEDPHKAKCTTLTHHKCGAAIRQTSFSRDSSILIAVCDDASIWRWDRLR
T1 sequence (Q15022 whole entry partner): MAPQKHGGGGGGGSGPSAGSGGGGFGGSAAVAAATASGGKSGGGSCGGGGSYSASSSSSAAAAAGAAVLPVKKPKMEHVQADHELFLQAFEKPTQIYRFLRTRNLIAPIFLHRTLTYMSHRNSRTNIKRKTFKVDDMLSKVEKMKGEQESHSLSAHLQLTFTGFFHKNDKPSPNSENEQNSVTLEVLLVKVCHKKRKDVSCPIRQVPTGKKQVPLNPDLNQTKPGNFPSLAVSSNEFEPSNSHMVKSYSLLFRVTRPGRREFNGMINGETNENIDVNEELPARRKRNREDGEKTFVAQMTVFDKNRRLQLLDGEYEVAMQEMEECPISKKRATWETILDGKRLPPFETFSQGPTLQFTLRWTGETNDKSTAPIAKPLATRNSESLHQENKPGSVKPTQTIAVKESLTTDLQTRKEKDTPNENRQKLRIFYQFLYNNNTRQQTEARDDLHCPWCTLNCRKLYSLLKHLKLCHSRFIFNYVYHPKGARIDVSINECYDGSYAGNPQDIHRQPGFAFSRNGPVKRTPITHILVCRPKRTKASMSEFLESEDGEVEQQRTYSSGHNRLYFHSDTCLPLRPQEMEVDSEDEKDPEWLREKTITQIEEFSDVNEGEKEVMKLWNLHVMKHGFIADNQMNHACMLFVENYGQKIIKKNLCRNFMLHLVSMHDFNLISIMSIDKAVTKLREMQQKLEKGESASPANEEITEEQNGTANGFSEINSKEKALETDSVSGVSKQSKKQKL

SMILES | invasion mediated by EZH2 overexpression [1] | EZH2 inhibitory activity in high throughput screen (EZH2) | inhibition of EZH2 mediated E cadherin repression ([2]; cells over expressing EZH2, FIG. 5B) | concentration that optimally inhibits EZH2 mediated E cadherin repression ([2]; dose response, FIG. 6A)
O=C(CCc1ccc(O)cc1)c1c(O)cc(O)cc1O [control small molecule, phloretin, reference compound] | did not inhibit the invasion |  |  | 
O=C(/C=C/c1ccc(O)cc1)c1ccc(O)cc1O [isoliquiritigenin] | inhibited this invasion | potent small molecule inhibitor of EZH2 activity | significantly inhibit | 16 µM

— patent publication US20110251216A1, “COMPOSITIONS AND METHODS FOR INHIBITING EZH2” (The Regents of The University of Michigan, priority 2010, published 2011)
